# Reference: patent publication US11135214B2, “Methods for enhancing the bio availability and exposure of a voltage-gated potassium channel opener” (priority 2018, dated 2021)
# Like-named read-outs stand apart in the source and are kept apart here.
# Assays:
# [1] = tested on: spontaneous brain oscillations; assay: TMS crossover study, resting state EEG; assay type: in vivo, human
# Description: Sensor-level delta (2-4 Hz), theta (4-7 Hz), alpha (8-12 Hz) and beta (13-30 Hz) frequency activity was estimated using a Fast Fourier Transform (FFT) approach. Power of all frequencies between 2 and 30 Hz were estimated, using a frequency resolution of 0.5 Hz. A non-parametric dependent samples t-test based on a permutation approach (1500 permutations) was used to test differences between drug conditions on all EEG sensors.
# [2] = First-in-human SAD and MAD study, pharmacokinetics; assay type: in vivo; settings: for Cmax / Tmax / AUC(0-t): human, plasma, oral
# Protocol: A first-in-human study was conducted to evaluate the safety, tolerability and pharmacokinetics (PK) of single and multiple ascending doses (SAD and MAD) of oral Compound A.
# In the SAD Phase, 32 healthy volunteers were randomized (3:1) to Compound A (5, 15, 20, 25 or 30 mg) or placebo. The study featured an adaptive design. A crossover food effect cohort (N=10) was also completed with single doses of 20 mg. A sub-set of 8 male subjects were also assessed with Transcranial Magnetic Stimulation (TMS) for effects on cortical excitability (see Examples 4 and 5).
# Repeat doses of Compound A (15 mg QD) were evaluated in a fasted and fed state over 7 and 10 days, respectively. Repeat doses of Compound A (25 mg QD) were also evaluated in a fed state over 10 days.
# Compound A was formulated as an immediate release capsule. Serial plasma PK samples were collected for all cohorts. Safety evaluations throughout the study included adverse event (AE) monitoring, clinical laboratory tests, vital signs, ECGs, physical examinations and Columbia-Suicide Severity Rating Scale.
# [3] = at highest Compound A plasma concentration vs pre-dose
# [4] = 5 mg, SAD, 5 mg fasted, N=3, Mean ± SD
# [5] = 15 mg, MAD, 15 mg Fed, Day 1, N=6, mean
# [6] = 15 mg, MAD, 15 mg Fed, Day 10, N=6, mean
# [7] = 15 mg, MAD, 15 mg QD Fasted, Day 1, N=6, mean
# [8] = 15 mg, MAD, 15 mg QD Fasted, Day 7, N=6, mean
# [9] = 15 mg, SAD, 15 mg fasted, N=3, Mean ± SD
compound,measurement,setting,value
"Cc1cc(N2CCc3cc(F)ccc3C2)cc(C)c1NC(=O)CC(C)(C)C [Compound A, N-[4-(6-fluoro-3,4-dihydro-1H-isoquinolin-2-yl)-2,6-dimethylphenyl]-3,3-dimethylbutanamide]",shift of power spectra of resting state EEGs,[1]; 20 mg,toward lower frequencies
same,"Modulation of resting state EEG bands, Delta",[1]; 2 h after dosing vs pre-dose,↑ Delta
same,"Modulation of resting state EEG bands, Theta",[1]; 2 h after dosing vs pre-dose,↑ Theta
same,"Modulation of resting state EEG bands, Beta",[1]; 4 h after dosing vs pre-dose,↑ Beta
same,"Modulation of resting state EEG bands, Delta",[1]; 4 h after dosing vs pre-dose,↑ Delta
same,"Modulation of resting state EEG bands, Theta",[1]; 4 h after dosing vs pre-dose,↑ Theta
same,resting state delta power vs pre-dose,"[1]; all available subjects, 2 h p<0.001, 4 h p<0.001",significantly increased
same,resting state beta band power vs pre-dose,"[1]; all available subjects, 2 h p=0.005, 4 h p<0.001, 6 h p=0.009",significantly increased
same,resting state theta power vs pre-dose,"[1]; all available subjects, 2 h p=0.006, 4 h two clusters p=0.008 and p=0.03",significantly increased
same,"Modulation of resting state EEG bands, Beta",[1]; [3],↑ Beta
same,"Modulation of resting state EEG bands, Delta",[1]; [3],↑ Delta
same,"Modulation of resting state EEG bands, Theta",[1]; [3],↑ Theta
same,resting state delta power vs pre-dose,"[1]; concentration analysis N=16, high plasma exposure, p<0.001",increase in power
same,resting state beta power vs pre-dose,"[1]; concentration analysis N=16, high plasma exposure, p=0.005",increase in power
same,resting state theta power vs pre-dose,"[1]; concentration analysis N=16, high plasma exposure, p=0.01",increase in power
same,resting state delta power compared to placebo,"[1]; post-dose minus pre-dose, p<0.001",overall increase of power
same,resting state beta power compared to placebo,"[1]; post-dose minus pre-dose, p=0.003",overall increase of power
same,resting state theta power compared to placebo,"[1]; post-dose minus pre-dose, p=0.02",overall increase of power
same,resting state delta power vs pre-dose,"[1]; subjects with drug exposure, 2 h p=0.001, 4 h p<0.001",significantly increased
same,resting state beta band power vs pre-dose,"[1]; subjects with drug exposure, 2 h p=0.01, 4 h p<0.001",significantly increased
same,resting state theta power vs pre-dose,"[1]; subjects with drug exposure, 2 h p=0.01, 4 h p=0.01",significantly increased
same,"absorption enhanced by food, AUCinf","[2]; crossover food effect cohort, 20 mg",~1.8 fold
same,dose proportionality of exposure,[2]; fasted state,less than dose-proportional exposure
same,Cmax,[2]; [4],7.13 ± 6.12 ng/mL
same,Tmax,[2]; [4],3.17 ± 2.47 h
same,AUC(0-t),"[2]; 5 mg, SAD, 5 mg fasted, N=3, Mean ± SD, read-out: AUC0-24",74.6 ± 50.5 ng·h/mL
same,AUC(0-t),"[2]; 5 mg, SAD, 5 mg fasted, N=3, tLast 32 h, Mean ± SD, read-out: AUC0-t",91.3 ± 54.2 ng·h/mL
same,Cmax,[2]; [5],35.9 ng/mL
same,Tmax,[2]; [5],4.37 h
same,AUC(0-t),"[2]; 15 mg, MAD, 15 mg Fed, Day 1, N=6, mean, read-out: AUC0-24",353 ng·h/mL
same,Cmax,[2]; [6],60.8 ng/mL
same,Tmax,[2]; [6],3.69 h
same,AUC(0-t),"[2]; 15 mg, MAD, 15 mg Fed, Day 10, N=6, mean, read-out: AUC0-24",1020 ng·h/mL
same,AUC(0-t),"[2]; 15 mg, MAD, 15 mg Fed, Day 10, N=6, mean, read-out: AUC0-t",4950 ng·h/mL
same,Cmax,[2]; [7],10.5 ng/mL
same,Tmax,[2]; [7],2.68 h
same,AUC(0-t),"[2]; 15 mg, MAD, 15 mg QD Fasted, Day 1, N=6, mean, read-out: AUC0-24",125 ng·h/mL
same,Cmax,[2]; [8],45.1 ng/mL
same,Tmax,[2]; [8],2.69 h
same,AUC(0-t),"[2]; 15 mg, MAD, 15 mg QD Fasted, Day 7, N=6, mean, read-out: AUC0-24",757 ng·h/mL
same,AUC(0-t),"[2]; 15 mg, MAD, 15 mg QD Fasted, Day 7, N=6, mean, read-out: AUC0-t",4260 ng·h/mL
same,Cmax,[2]; [9],27.3 ± 11.1 ng/mL
same,Tmax,[2]; [9],4.5 ± 2.6 h
same,AUC(0-t),"[2]; 15 mg, SAD, 15 mg fasted, N=3, Mean ± SD, read-out: AUC0-24",328 ± 141 ng·h/mL
same,AUC(0-t),"[2]; 15 mg, SAD, 15 mg fasted, N=3, tLast 32 h, Mean ± SD, read-out: AUC0-t",397 ± 166 ng·h/mL
